Columns and labels:
Assay in all cases: greenhouse post-emergence herbicidal test
Assay type in all cases: in vivo
Conditions in all cases: application rate 0.25 kg/ha
[1] = system: ALOMY (Alopercurus myosuroides)
Text: (§1) The culture containers used were plastic flowerpots containing loamy sand with approximately 3.0% of humus as the substrate. The seeds of the test plants were sown separately for each species.
(§2) For the post-emergence treatment, the test plants were first grown to a height of 3 to 15 cm, depending on the plant habit, and only then treated with the active ingredients which had been suspended or emulsified in water. For this purpose, the test plants were either sown directly and grown in the same containers, or they were first grown separately as seedlings and transplanted into the test containers a few days prior to treatment.
(§3) Depending on the species, the plants were kept at 10-25° C. or 20-35° C. The test period extended over 2 to 4 weeks. During this time, the plants were tended, and their response to the individual treatments was evaluated.
(§4) Evaluation was carried out using a scale from 0 to 100. 100 means no emergence of the plants, or complete destruction of at least the aerial moieties, and 0 means no damage, or normal course of growth. A good herbicidal activity is given at values of at least 70 and a very good herbicidal activity is given at values of at least 85.
(§5) The herbicidal activity of the substituted pyridine compounds I-2 and I-13 according to this invention was tested in comparison with the corresponding pyrazine compounds Nos. C-11 and C-19 disclosed on page 48 of WO 2010/130970 (not of the invention). These comparative experiments were performed at an application rate of 0.25 kg/ha in a post-emergence treatment by following the same procedure as described above in the Use Examples. The results of Comparative Examples 1 and 2 are indicated below in Tables II and III.

[2] = system: AVEFA (Avena fatua)
Text: as §1, §2, §3, §4, §5

[3] = system: ECHCG (Echinocloa crus-galli)
Text: as §1, §2, §3, §4, §5

[4] = system: CHEAL (Chenopodium album)
Text: as §1, §2, §3, §4, §5

[5] = system: BRSNW (Brassica napus (winter))
Text: as §1, §2, §3, §4, §5

Structure (SMILES) | herbicidal activity against ALOMY [1] | herbicidal activity against AVEFA [2] | herbicidal activity against ECHGG [3] | herbicidal activity against CHEAL [4] | herbicidal activity against BRSNW [5]
O=S1(=O)Cc2cccnc2C(O)=C1c1ccccc1C(F)(F)F [I-2, 6,6-Dioxo-7-(2-trifluoromethyl-phenyl)-5,6-dihydro-thiopyrano[4,3-b]pyridin-8-ol] | very good (a very good herbicidal activity is given at values of at least 85) | very good (a very good herbicidal activity is given at values of at least 85) | very good (a very good herbicidal activity is given at values of at least 85) |  | 
CC(C)(C)C(=O)OC1=C(c2ccccc2C(F)(F)F)S(=O)(=O)Cc2cccnc21 [I-8, 2,2-Dimethyl-propionic acid 6,6-dioxo-7-(2-trifluoromethyl-phenyl)-5,6-dihydro-thiopyrano[4,3-b]pyridin-8-yl ester] | good (A good herbicidal activity is given at values of at least 70) |  |  |  | 
O=S1(=O)Cc2cccnc2C(O)=C1c1c(Cl)cccc1Cl [I-13] |  |  | very good (a very good herbicidal activity is given at values of at least 85) | very good (a very good herbicidal activity is given at values of at least 85) | very good (a very good herbicidal activity is given at values of at least 85)
O=S1(=O)Cc2nccnc2C(O)=C1c1ccccc1C(F)(F)F [reference compound] | good (A good herbicidal activity is given at values of at least 70) | less than good | less than good |  | 
O=S1(=O)Cc2nccnc2C(O)=C1c1c(Cl)cccc1Cl [reference compound] |  |  | less than good | less than good | good (A good herbicidal activity is given at values of at least 70)

— patent publication US8877683B2, “Substituted pyridines having herbicidal activity” (BASF SE, priority 2010, dated 2014)
